Experimental data as given in patent publication US20250170237A1, “MURAMYL DIPEPTIDES AND PROCESS FOR PREPARATION THEREOF” (priority 2022, published 2025).

Legend:
OVA antigen = experiment: IgG titer with OVA antigen (indirect ELISA, immunized mice); format: in vivo, BALB/c mice
Procedure: (§1) Adjuvanticity of 15b was evaluated using antigens (OVA, HBsAg, DENV and JEV) in BALB/c mice model—From the immunized mice retro-orbital sampling or retro-orbital blood was collected on 14th and 28th day before sacrifice. Serum was separated by centrifugation at 12,500 rpm for 5 min. Transferred to a clean centrifuge tube and store at −80 until used.
(§2) The plates were coated with antigen in carbonate buffer. Plates were incubated at 4° C. overnight. They were then washed 3 times with PBS/Tween, and non-specific binding sites were blocked by adding 200 μl of blocking solution. Plates were incubated at room temperature for 1 h. Then 3 times wash is done, diluted standards and samples to desired concentrations in blocking solution were added to the plates. Incubate at 37° C. for 1 h or at 4° C. overnight. Plates were washed 3 times with PBS/Tween. Avidin-Horseradish Peroxidase (Av-HRP) was diluted and added. Incubated at room temperature for 30 min. Plates were washed 3 times with PBS/Tween. OPD Substrate was added and plates were incubated at room temperature (4-30 min) for colour development. The colour reaction was stopped by adding 50 μl of stop solution. Optical density (OD) was read at 492 nm.

HBsAg antigen = experiment: IgG titer with HBsAg antigen; format: in vivo, BALB/c mice
Procedure: as §1, §2

[1] = test system: cytokines IFN, IL-1, IL-4, IL-6, IL-10; experiment: Post HBsAg immunization In vivo cytokine assay; set-up: species or system BALB/c mice
Procedure: (§3) ELISA was carried out by Bio Legend capture and detection antibodies. Briefly, 96-well plates were coated with capture antibody dissolved in coating buffer per well incubated overnight at 4° C. Wells were blocked with BSA for 1 h at RT. After blocking, 50 μL/well of serum was added and incubated for 3 h. After washing, Biotinylated secondary antibody was added along with enzyme. Plates were incubated for 1 h at RT. Then plates were washed and TMB substrate solution was added. The reaction was stopped after 30 min with a stopping solution. Absorbance was measured at 450 nm with a plate reader.

CD4, CD8 [2] = experiment: Post HBsAg immunization Immunophenotyping; format: in vivo, BALB/c mice
Procedure: (§4) Staining for extracellular markers Staining was as per the manufacturer's protocol and run on a BD FACS Verse flow cytometer. Compensation was established using BD Biosciences compensation beads. Post-acquisition flow cytometry analysis was performed using FACS Suite software.

[3] = test system: CD4, CD8, CD19, CD80, CD 28; experiment: Post Denv immunization Immunophenotyping; format: in vivo, BALB/c mice
Procedure: as §4

JEV antigen = experiment: IgG titer with JEV antigen; format: in vivo, BALB/c mice
Procedure: as §1, §2

[4] = test system: cytokines IL-1, IL-2, IL-4, IFN, IL-6, IL-10, IL-12, TNF; experiment: Post JEV immunization In vivo cytokine assay; set-up: species or system BALB/c mice
Procedure: as §3

splenocytes = experiment: Post JEV immunization In vivo splenocyte proliferation assay; set-up: species or system BALB/c mice; details: UT = 100 (Table 15)
Procedure: Splenocytes were seeded into 96-well flat-bottom microtiter plates having 1×10^5 cells/well in […] complete RPMI-1640 medium. Plates were incubated at 37° C. with 5% CO2. After 48 h, […] MTT solution (5 mg/mL) was added to each well and left to incubate for next 4 h. Untransformed MTT ([…]) was removed from each well by pipetting. A total of […] of DMSO was added and the absorbance was evaluated in an ELISA reader at 630 nm on the multimode reader (Infinite 200 Pro, Switzerland) after 15 min

CD4, CD8 [5] = experiment: Post JEV immunization Immunophenotyping; format: in vivo, BALB/c mice
Procedure: as §4

[6] = test system: antigens (OVA, HBsAg, DENV and JEV); experiment: Serum anti-antigens (OVA, HBsAg, DENV and JEV) IgG titer, overall statements; format: in vivo, BALB/c mice; details: 15b against Ovalbumin, DEV, 15f against JEV
Procedure: as §1, §2

With `C[C@H](NC(=O)[C@@H](C)O[C@H]1[C@H](O)[C@@H](CO)OC(O)[C@@H]1NC(=O)C1CC1)C(=O)N[C@H](CCC(=O)O)C(N)=O` (stereo partly drawn) [15b, (4R)-5-amino-4-((2S)-2-((2R)-2-(((3R,4R, 5S, 6R)-3-(cyclopropanecarboxamido)-2,5-dihydroxy-6-(hydroxymethyl)tetrahydro-2H-pyran-4-yl)oxy)propanamido)propanamido)-5-oxopentanoic acid] the “IgG titer with OVA antigen” value (OVA antigen; dose 1 μg) was 1600-124000, the “IgG titer with OVA antigen” value (OVA antigen; dose 10 μg) was 204800-416000 and the “IgG titer with OVA antigen” value (OVA antigen; dose 100 μg) was 115000-320000. The “IgG titer with HBsAg antigen” value (HBsAg antigen; dose 1 μg) was 51200-102400, the “IgG titer with HBsAg antigen” value (HBsAg antigen; dose 10 μg) was 102400-240000 and the IFN ([1]; dose 1 μg) was 80.6 pg/mL. For the same compound, the IFN ([1]; dose 10 μg) was 75.07 pg/mL, the IFN ([1]; dose 100 μg) was 68.6 pg/mL and the CD4 (CD4, CD8 [2]; dose 1 μG) was 24.48-29.48. The CD8 (CD4, CD8 [2]; dose 1 μG) was 12.71-19.48, the CD4 (CD4, CD8 [2]; dose 10 μG) was 25.47-29.48 and the CD8 (CD4, CD8 [2]; dose 10 μG) was 12.67-18.54. For the same compound, the CD4 ([3]; dose 1 μG) was 36.26-41.8, the CD8 ([3]; dose 1 μG) was 22.26-29.48 and the CD19 ([3]; dose 1 μG) was 30.57-35.48. For the same compound, the “CD 28” value ([3]; dose 1 μG) was 3.65-7.48, the CD80 ([3]; dose 1 μG) was 6.3-8.4 and the CD4 ([3]; dose 10 μG) was 38.74-43.84. The CD8 ([3]; dose 10 μG) was 22.92-27.84, the CD19 ([3]; dose 10 μG) was 36.19-41.28 and the “CD 28” value ([3]; dose 10 μG) was 3.68-8.41. For the same compound, the CD80 ([3]; dose 10 μG) was 6.11-11.4, the “IgG titer with JEV antigen” value (JEV antigen; dose 1 μg (Table 13)) was 64000-128000 and the “IgG titer with JEV antigen” value (JEV antigen; dose 10 μg (Table 13)) was 8000-16000. For the same compound, the “IgG titer with JEV antigen” value (JEV antigen; dose 100 μg (Table 13)) was 40000-80000, the IFN ([4]; dose 1 μg (Table 14)) was 4.21 to 6.37 pg/mL and the IL-2 ([4]; dose 1 μg (Table 14)) was 13.77 to 19.81 pg/mL. It also gave an IL-6 ([4]; dose 1 μg (Table 14)) of 157.05 to 160.47 pg/mL, an IL-10 ([4]; dose 1 μg (Table 14)) of 48 to 51.02 pg/mL and an IFN ([4]; dose 10 μg (Table 14)) of 11.03 to 13.05 pg/mL. It also gave an IL-1 ([4]; dose 10 μg (Table 14)) of 61.9 to 67.25 pg/mL, an IL-2 ([4]; dose 10 μg (Table 14)) of 12.17 to 15.34 pg/mL and an IL-6 ([4]; dose 10 μg (Table 14)) of 233.3 to 245.27 pg/mL. The IL-10 ([4]; dose 10 μg (Table 14)) was 52.3 to 54.28 pg/mL, the IFN ([4]; dose 100 μg (Table 14)) was 3.06 to 6.48 pg/mL and the IL-1 ([4]; dose 100 μg (Table 14)) was 70.1 to 73.48 pg/mL. For the same compound, the IL-2 ([4]; dose 100 μg (Table 14)) was 23.97 to 27.45 pg/mL, the IL-6 ([4]; dose 100 μg (Table 14)) was 279.85 to 281.47 pg/mL and the IL-10 ([4]; dose 100 μg (Table 14)) was 57.5 to 59.48 pg/mL. For the same compound, the “Splenocyte proliferation, Con A” value (splenocytes; dose 1 μg) was 117.5-119.48, the “Splenocyte proliferation, LPS” value (splenocytes; dose 1 μg) was 118.2-120.01 and the “Splenocyte proliferation, Normal” value (splenocytes; dose 1 μg) was 118.6-120.48. For the same compound, the “Splenocyte proliferation, Restimulated” value (splenocytes; dose 1 μg) was 116.5-119.27, the “Splenocyte proliferation, Con A” value (splenocytes; dose 10 μg) was 124.55-126.85 and the “Splenocyte proliferation, LPS” value (splenocytes; dose 10 μg) was 104.6-109.57. The “Splenocyte proliferation, Normal” value (splenocytes; dose 10 μg) was 111.38-115.78, the “Splenocyte proliferation, Restimulated” value (splenocytes; dose 10 μg) was 114.2-117.24 and the CD4 (CD4, CD8 [5]; dose 1 μG) was 39.75-42.58. The CD8 (CD4, CD8 [5]; dose 1 μG) was 14.56-19.54, the CD4 (CD4, CD8 [5]; dose 10 μG) was 41.86-43.28 and the CD8 (CD4, CD8 [5]; dose 10 μG) was 14.78-17.25. For the same compound, the “antibody titer, conclusion in words” value [6] was “significant antibody titer”, the “% Hemolysis” value (In vitro Hemolysis assay; erythrocytes (red blood cells)) was 2.302 ± 0.147% and the “toxicity and hemolysis, conclusion in words” value (In vitro Hemolysis assay; even at higher concentrations) was “non-toxic and non-hemolytic”.
